{"source": "ChEMBL document CHEMBL1148161", "about": "“Jaspisamides A-C, new cytotoxic macrolides from the Okinawan sponge Jaspis sp” (J Nat Prod, 1993)", "key": {"[1]": {"test_system": "KB", "test": "Cytotoxicity against human KB cells", "type": "functional, cell-based"}, "[2]": {"test_system": "L1210", "test": "Cytotoxicity against mouse L1210 cells", "type": "functional, cell-based"}}, "data": [{"compound": "COC(CC1OC(=O)CC(O)C/C=C/C(=O)C(C)C(OC)c2coc(n2)-c2coc(n2)-c2coc(n2)/C=C/CC(O)C1C)C(C)CCC(=O)C(C)C(C/C=C/N(C)C=O)OC", "note": "(stereo unspecified) [JASPISAMIDE B]", "values": [{"measurement": "IC50", "setting": "[1]", "result": 6, "unit": "ng/mL"}, {"measurement": "IC50", "setting": "[2]", "result": "< 1", "unit": "ng/mL"}]}, {"compound": "COC(CC1OC(=O)CC(O)C/C=C/C(=O)C(C)C(OC)c2coc(n2)-c2coc(n2)-c2coc(n2)/C=C/CCC1C)C(C)CCC(=O)C(C)C(OC)C(C)/C=C/N(C)C=O", "note": "(stereo unspecified) [JASPISAMIDE C]", "values": [{"measurement": "IC50", "setting": "[1]", "result": 13, "unit": "ng/mL"}, {"measurement": "IC50", "setting": "[2]", "result": "< 1", "unit": "ng/mL"}]}, {"compound": "COC(CC1OC(=O)CC(O)CC(O)CC(=O)C(C)C(OC)c2coc(n2)-c2coc(n2)-c2coc(n2)/C=C/CCC1C)C(C)CCC(=O)C(C)C(C/C=C/N(C)C=O)OC", "note": "(stereo unspecified) [JASPISAMIDE A]", "values": [{"measurement": "IC50", "setting": "[1]", "result": 15, "unit": "ng/mL"}, {"measurement": "IC50", "setting": "[2]", "result": "< 1", "unit": "ng/mL"}]}]}
